In patent US20220087996A1, “Histone acetylase p300 inhibitor and use thereof” (HINOVA PHARMACEUTICALS INC., priority 2018, published 2022):

What was measured:
KMS-11 = experiment: Inhibition of proliferation of KMS-11 cells; assay type: cell-based; conditions: Homo sapiens; Multiple myeloma cell line KMS-11; read-out: IC50 against KMS-11
Procedure: (§1) 1) CWR22RV1 cells were subcultured in cell culture medium, and the cells in good growth condition were seeded in a 96-well plate, 80 μL for each well, and the cell number in each well was 1500. The plate was incubated overnight in a 37° C., 5% CO2 cell incubator. 2) The drug was prepared as 30 mM stock solution with dimethyl sulfoxide (DMSO). Prior to use, the stock solution was diluted 3 times with DMSO, and then further diluted as 3-fold gradient to obtain 9 concentration gradients. Then, each concentration of compound was diluted 200 times with the culture solution (ensuring that the DMSO concentration in the culture system was 0.1%), and two replicate wells were set for each concentration. 20 μL of diluted compound solution was added to the cell culture well (with final concentrations of 10 μM, 3.3 μM. 1.1 μM . . . ), and the plate was gently shaken to mix. In addition, 3 negative control wells containing only cells and 3 blank control wells containing only culture medium were included (6 wells were each added 20 μL DMSO diluted 200 times with culture medium). 2. Result detection: (1) After culturing for 6 days, 10 μL CCK-8 was added to each well, and the plate was continually cultured in a 37° C., 5% CO2 cell incubator for 2.5 h. (2) The absorbance (OD value) was detected at 450 nm using a multifunctional microplate reader. (3) The data were analyzed by Dose-response-inhibition equation in the software GraphPad Prism6, and the IC50 value was obtained.
(§2) Using the same method as Experimental example 2, CWR22RV1 cells were replaced with tumor cells in Table 3, and the IC50 (nM) of the compound according to the present invention against the activity of these tumor cells was tested and calculated.

MT-2 = experiment: Inhibition of proliferation of MT-2 cells; assay type: cell-based; conditions: Homo sapiens, MT2; Leukemia cell line MT-2; read-out: IC50 against MT-2
Procedure: as §1, §2

HCC1428 = experiment: Inhibition of proliferation of HCC1428 cells; assay type: cell-based; conditions: Homo sapiens; Breast cancer cell line HCC1428; read-out: IC50 against HCC1428
Procedure: as §1, §2

OCI-AML3 = experiment: Inhibition of proliferation of OCI-AML3 cells; assay type: cell-based; conditions: Homo sapiens, OCI-AML-3; Leukemia cell line OCI-AML3; read-out: IC50 against OCI-AML3
Procedure: as §1, §2

histone acetylase p300 = molecular target: T1, histone acetylase p300 (Homo sapiens, UniProt Q09472); experiment: Inhibitory activity on histone acetylase p300 (radioisotope FlashPlate); assay type: biochemical; conditions: enzyme 0.2 nM, peptide substrate 600 nM, [3H]-Ac-CoA 250 nM; read-out: IC50 against P300
T1 construct: purchased BPS
T1 sequence (Q09472 whole entry): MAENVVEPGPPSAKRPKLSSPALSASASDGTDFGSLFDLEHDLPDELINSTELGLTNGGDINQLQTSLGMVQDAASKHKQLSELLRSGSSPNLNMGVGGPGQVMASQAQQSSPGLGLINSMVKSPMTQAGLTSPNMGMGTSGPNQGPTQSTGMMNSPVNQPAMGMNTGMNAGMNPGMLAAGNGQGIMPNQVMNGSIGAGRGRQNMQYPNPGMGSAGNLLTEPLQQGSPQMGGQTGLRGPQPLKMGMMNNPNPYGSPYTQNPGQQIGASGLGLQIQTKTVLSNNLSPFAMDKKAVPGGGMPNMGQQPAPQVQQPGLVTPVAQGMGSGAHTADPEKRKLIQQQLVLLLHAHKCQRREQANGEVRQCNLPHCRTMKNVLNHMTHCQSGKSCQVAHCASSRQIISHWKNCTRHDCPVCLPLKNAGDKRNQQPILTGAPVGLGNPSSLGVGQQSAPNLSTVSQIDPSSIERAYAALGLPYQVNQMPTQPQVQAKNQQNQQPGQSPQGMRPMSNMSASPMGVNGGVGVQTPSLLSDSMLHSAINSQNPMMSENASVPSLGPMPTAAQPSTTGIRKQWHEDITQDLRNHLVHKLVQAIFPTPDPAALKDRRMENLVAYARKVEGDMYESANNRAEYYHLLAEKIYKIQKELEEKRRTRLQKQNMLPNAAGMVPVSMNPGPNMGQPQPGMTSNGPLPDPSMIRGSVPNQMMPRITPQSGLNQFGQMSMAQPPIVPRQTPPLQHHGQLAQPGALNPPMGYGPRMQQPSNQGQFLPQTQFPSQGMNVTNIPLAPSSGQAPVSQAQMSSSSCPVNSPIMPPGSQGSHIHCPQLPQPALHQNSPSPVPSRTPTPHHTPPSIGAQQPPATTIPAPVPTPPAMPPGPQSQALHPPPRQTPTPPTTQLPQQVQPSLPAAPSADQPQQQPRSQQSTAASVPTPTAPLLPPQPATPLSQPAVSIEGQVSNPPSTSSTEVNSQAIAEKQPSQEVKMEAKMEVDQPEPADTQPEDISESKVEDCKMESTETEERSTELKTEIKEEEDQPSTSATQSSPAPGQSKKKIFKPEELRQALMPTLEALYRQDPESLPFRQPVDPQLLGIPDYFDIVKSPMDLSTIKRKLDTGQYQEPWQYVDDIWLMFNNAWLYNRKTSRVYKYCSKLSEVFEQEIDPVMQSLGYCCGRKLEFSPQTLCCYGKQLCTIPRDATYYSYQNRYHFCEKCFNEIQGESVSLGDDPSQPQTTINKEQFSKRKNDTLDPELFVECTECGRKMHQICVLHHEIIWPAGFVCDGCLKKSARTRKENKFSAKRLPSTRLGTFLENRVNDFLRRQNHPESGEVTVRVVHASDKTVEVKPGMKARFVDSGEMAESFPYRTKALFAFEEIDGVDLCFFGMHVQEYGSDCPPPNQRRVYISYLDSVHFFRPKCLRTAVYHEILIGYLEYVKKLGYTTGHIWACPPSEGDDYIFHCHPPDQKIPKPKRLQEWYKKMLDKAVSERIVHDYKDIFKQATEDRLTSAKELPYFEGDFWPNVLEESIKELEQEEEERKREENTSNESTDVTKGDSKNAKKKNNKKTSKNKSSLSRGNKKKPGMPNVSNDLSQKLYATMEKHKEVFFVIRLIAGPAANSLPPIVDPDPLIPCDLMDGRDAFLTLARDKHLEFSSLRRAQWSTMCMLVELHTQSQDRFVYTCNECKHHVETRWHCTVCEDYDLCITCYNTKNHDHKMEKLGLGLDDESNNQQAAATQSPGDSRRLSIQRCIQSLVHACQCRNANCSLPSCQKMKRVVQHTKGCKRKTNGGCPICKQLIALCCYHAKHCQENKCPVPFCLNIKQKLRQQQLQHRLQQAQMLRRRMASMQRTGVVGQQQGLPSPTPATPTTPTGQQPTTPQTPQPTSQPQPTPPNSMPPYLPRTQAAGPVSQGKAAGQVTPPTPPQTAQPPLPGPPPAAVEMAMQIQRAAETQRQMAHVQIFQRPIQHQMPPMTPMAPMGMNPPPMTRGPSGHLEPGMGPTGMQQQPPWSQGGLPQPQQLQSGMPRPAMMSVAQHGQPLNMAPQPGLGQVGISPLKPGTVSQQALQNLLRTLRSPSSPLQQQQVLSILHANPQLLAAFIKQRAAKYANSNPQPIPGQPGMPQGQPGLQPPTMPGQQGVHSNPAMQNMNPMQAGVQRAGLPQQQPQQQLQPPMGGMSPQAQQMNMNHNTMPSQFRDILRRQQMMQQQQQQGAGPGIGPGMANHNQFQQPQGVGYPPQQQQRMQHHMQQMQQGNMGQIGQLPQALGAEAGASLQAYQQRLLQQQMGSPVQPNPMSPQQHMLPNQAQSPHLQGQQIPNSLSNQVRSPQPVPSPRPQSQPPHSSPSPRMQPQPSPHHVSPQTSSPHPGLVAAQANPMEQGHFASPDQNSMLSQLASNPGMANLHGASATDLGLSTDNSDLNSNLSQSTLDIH
Description: Using the radioisotope FlashPlate technology, the half inhibitory concentration (IC50) of the compound according to the present invention was detected against histone acetylase p300 (purchased from BPS). […] Under the catalysis of histone acetylase p300, [3H]—Ac group in the isotope-labeled [3H]-Ac-CoA was transferred to the biotinylated histone polypeptide substrate (purchased from GL Biochem Ltd.), and then the biotinylated histone peptide substrate bound to the streptavidin on the FlashPlate board, so that the isotope was close enough to the FlashPlate board. Thus, the radiation energy of isotope could convert the scintillation fluid coated on the FlashPlate board into photons, that was able to be detected. Detailed procedures were as follows:
• 1× reaction buffer: 50 mM Tris-HCl, pH 7.5; 0.01% Tween-20 • Reaction stop solution: 750 μM Ac-CoA solution
Each test compound was dissolved into 10 mM with 100% DMSO, and then each compound was diluted to the desired concentration in Echo 384-well plate. […] 200 nl of 100% DMSO was transferred into the well as the negative control.
p300 was added to 1× reaction buffer to form a 2× enzyme solution (the final concentration of enzyme being 0.2 nM).
The peptide substrate and [3H]-Ac-CoA were added to the 1-fold reaction buffer, to form a 2-fold substrate solution (the final concentration of the substrate being 600 nM and 250 nM, respectively).
10 μl of 2-fold enzyme solution was added to the wells of 384-well reaction plate. […] The plate was centrifuged at 1000 rpm for 1 min and incubated at room temperature for 15 min.
10 μl of 2-fold substrate solution was added to each well of 384-well reaction plate. The plate was centrifuged at 1000 rpm for 1 min, and then reacted at 25° C. for 60 min.
10 μl of reaction stop solution was added to each well of 384-well reaction plate to stop the reaction. 25 μL solution was collected from each well of the test plate and transferred to Flashplate, that was placed at room temperature for 1 h. Then, Flashplate plate was washed three times with 0.1% Tween-20 solution.
4) Reading Data with MicroBeta 2
The data were copied from Microbeta 2. […] The maximum value is the conversion rate of the control DMSO, and the minimum value is the conversion rate of the control without enzyme activity.
The data were imported into Graph Pad Prism5, and the formula “log(inhibitor) vs. response−Variable slope” was used to perform curve fitting, to obtain the half inhibitory concentration (IC50).

RL = experiment: Inhibition of proliferation of RL cells; assay type: cell-based; conditions: Homo sapiens; Lymphoma cell line RL; read-out: IC50 against RL
Procedure: as §1, §2

MOLM-16 = experiment: Inhibition of proliferation of MOLM-16 cells; assay type: cell-based; conditions: MOLM16; Leukemia cell line MOLM-16; read-out: IC50 against MOLM-16
Procedure: as §1, §2

Pfeiffer = experiment: Inhibition of proliferation of Pfeiffer cells; assay type: cell-based; conditions: Homo sapiens; Lymphoma cell line Pfeiffer; read-out: IC50 against Pfeiffer
Procedure: as §1, §2

BT-474 = experiment: Inhibition of proliferation of BT-474 cells; assay type: cell-based; conditions: Homo sapiens; Breast cancer cell line BT-474; read-out: IC50 against BT-474
Procedure: as §1, §2

TALL-1 = experiment: Inhibition of proliferation of TALL-1 cells; assay type: cell-based; conditions: Homo sapiens; Leukemia cell line TALL-1; read-out: IC50 against TALL-1
Procedure: as §1, §2

KMS-12-PE = experiment: Inhibition of proliferation of KMS-12-PE cells; assay type: cell-based; conditions: Homo sapiens; Lymphoma cell line KMS-12-PE; read-out: IC50 against KMS-12-PE
Procedure: as §1, §2

VCAP = experiment: Inhibition of proliferation of VCAP cells; assay type: cell-based; conditions: Homo sapiens; Prostate cancer cell line VCAP; read-out: IC50 against VCAP
Procedure: as §1, §2

Z-138 = experiment: Inhibition of proliferation of Z-138 cells; assay type: cell-based; conditions: Homo sapiens; Lymphoma cell line Z-138; read-out: IC50 against Z-138
Procedure: as §1, §2

KARPAS-422 = experiment: Inhibition of proliferation of KARPAS-422 cells; assay type: cell-based; conditions: Homo sapiens; Lymphoma cell line KARPAS-422; read-out: IC50 against KARPAS-422
Procedure: as §1, §2

LNCAP = experiment: Inhibition of proliferation of LNCAP cells; assay type: cell-based; conditions: Homo sapiens; Prostate cancer cell line LNCAP; read-out: IC50 against LNCAP
Procedure: as §1, §2

MM.1R = experiment: Inhibition of proliferation of MM.1R cells; assay type: cell-based; conditions: Lymphoma cell line MM.1R; read-out: IC50 against MM.1R
Procedure: as §1, §2

IC50 (HCC1428) [nM] | IC50 (OCI-AML3) [nM] | IC50 (histone acetylase p300) [nM] | IC50 (MOLM-16) [nM] | IC50 (BT-474) [nM] | IC50 (VCAP) [nM] | IC50 (KARPAS-422) [nM] | IC50 (LNCAP) [nM] | IC50 (MM.1R) [nM] | Structure (SMILES) | IC50 (KMS-11) [nM] | IC50 (MT-2) [nM] | IC50 (RL) [nM] | IC50 (Pfeiffer) [nM] | IC50 (TALL-1) [nM] | IC50 (KMS-12-PE) [nM] | IC50 (Z-138) [nM]
≤ 500 | ≤ 500 | 1.6 | ≤ 500 | ≤ 500 | ≤ 500 | ≤ 500 | ≤ 500 | ≤ 500 | CNC(=O)Nc1ccc2c(c1)CC[C@@]21OC(=O)N(CC(=O)N2C(C)CC[C@H]2c2cc(F)c(F)c(F)c2)C1=O (stereo in doubt) [Example 205, 1-((R)-3′-(2-((2S,5R)-2-(3,4,5-trifluorophenyl)-5-methylpyrrolidin-1-yl)-2-oxoethyl)-2′,4′-dioxo-2,3-dihydrospiro[indene-1,5′-oxazolidine]-5-yl)-3-methylurea] | ≤ 500 | 500 to 2000 | ≤ 500 | ≤ 500 | ≤ 500 | 500 to 2000 | ≤ 500
≤ 500 | ≤ 500 | 1.6 | ≤ 500 | ≤ 500 | ≤ 500 | ≤ 500 | ≤ 500 | ≤ 500 | CNC(=O)Nc1ccc2c(c1)CC[C@@]21OC(=O)N(CC(=O)N2[C@@H](C)CC[C@H]2c2ccc(F)c(F)c2)C1=O [Example 201] | ≤ 500 | 500 to 2000 | ≤ 500 | ≤ 500 | ≤ 500 | 500 to 2000 | ≤ 500
≤ 500 | ≤ 500 | 1.9 | ≤ 500 | ≤ 500 | ≤ 500 | ≤ 500 | ≤ 500 | ≤ 500 | CNC(=O)Nc1cc2c(cc1F)[C@@]1(CC2)OC(=O)N(CC(=O)N2[C@@H](C)CC[C@H]2c2ccc(F)c(F)c2)C1=O [Example 389, 1-((R)-3′-(2-((2S,5S)-2-(3,4-difluorophenyl)-5-methylpyrrolidin-1-yl)-2-oxoethyl)-6-fluoro-2′,4′-dioxo-2,3-dihydrospiro[indene-1,5′-oxazolidine]-5-yl)-3-methylurea] | ≤ 500 | ≤ 500 | ≤ 500 | ≤ 500 | ≤ 500 | 500 to 2000 | ≤ 500
